From the supplement of paper PMC4862054

Experiments:
Settings in all cases: incubation time: 72 h
[1] = tested on: BT-474; test: normalised response (% of control), CellTox Green; higher = less cell death (100 = DMSO, 0 = benzethonium chloride kill control)
Procedure, shortened: (§1)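 After 72 h with compound in 384-well plates, breast cancer cell lines seeded as 20 µl suspension were read for CellTox Green fluorescence at 485/520 nm. CellTiter-Glo luminescence was then read after 10 min at room temperature. Compound was present at 5 concentrations in 10-fold steps over a 10,000-fold range set per compound, and plates were normalised to 0.1 % DMSO (100) and a positive kill control (0). Values are normalised signals, each at a single concentration.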

[2] = tested on: BT-549; test: as above
Procedure, shortened: as §1

[3] = tested on: CAL-120; test: as above
Procedure, shortened: as §1

[4] = tested on: CAL-148; test: as above
Procedure, shortened: as §1

[5] = tested on: CAL-51; test: as above
Procedure, shortened: as §1

[6] = tested on: CAL-85-1; test: as above
Procedure, shortened: as §1

[7] = tested on: DU-4475; test: as above
Procedure, shortened: as §1

[8] = tested on: HCC1143; test: as above
Procedure, shortened: as §1

[9] = tested on: HCC1599; test: as above
Procedure, shortened: as §1

[10] = tested on: HCC1937; test: as above
Procedure, shortened: as §1

[11] = tested on: HDQ-P1; test: as above
Procedure, shortened: as §1

[12] = tested on: Hs578T; test: as above
Procedure, shortened: as §1

[13] = tested on: MCF-10A; test: as above
Procedure, shortened: as §1

[14] = tested on: MDA-MB-231; test: as above
Procedure, shortened: as §1

[15] = tested on: MDA-MB-436; test: as above
Procedure, shortened: as §1

[16] = tested on: MDA-MB-453; test: as above
Procedure, shortened: as §1

[17] = tested on: MDA-MB-468; test: as above
Procedure, shortened: as §1

[18] = tested on: MFM-223; test: as above
Procedure, shortened: as §1

[19] = tested on: BT-474; test: normalised response (% of control), CellTiter-Glo; higher = more viable cells (100 = DMSO, 0 = benzethonium chloride kill control)
Procedure, shortened: as §1

[20] = tested on: BT-549; test: as above
Procedure, shortened: as §1

[21] = tested on: CAL-120; test: as above
Procedure, shortened: as §1

[22] = tested on: CAL-148; test: as above
Procedure, shortened: as §1

[23] = tested on: CAL-51; test: as above
Procedure, shortened: as §1

[24] = tested on: CAL-85-1; test: as above
Procedure, shortened: as §1

[25] = tested on: DU-4475; test: as above
Procedure, shortened: as §1

[26] = tested on: HCC1143; test: as above
Procedure, shortened: as §1

[27] = tested on: HCC1599; test: as above
Procedure, shortened: as §1

[28] = tested on: HCC1937; test: as above
Procedure, shortened: as §1

[29] = tested on: HDQ-P1; test: as above
Procedure, shortened: as §1

[30] = tested on: Hs578T; test: as above
Procedure, shortened: as §1

[31] = tested on: MCF-10A; test: as above
Procedure, shortened: as §1

[32] = tested on: MDA-MB-231; test: as above
Procedure, shortened: as §1

[33] = tested on: MDA-MB-436; test: as above
Procedure, shortened: as §1

[34] = tested on: MDA-MB-453; test: as above
Procedure, shortened: as §1

[35] = tested on: MDA-MB-468; test: as above
Procedure, shortened: as §1

[36] = tested on: MFM-223; test: as above
Procedure, shortened: as §1

[37] = tested on: SK-BR-3; test: as above
Procedure, shortened: as §1

| SMILES | normalised response [1] | normalised response [2] | normalised response [3] | normalised response [4] | normalised response [5] | normalised response [6] | normalised response [7] | normalised response [8] | normalised response [9] | normalised response [10] | normalised response [11] | normalised response [12] | normalised response [13] | normalised response [14] | normalised response [15] | normalised response [16] | normalised response [17] | normalised response [18] | normalised response [19] | normalised response [20] | normalised response [21] | normalised response [22] | normalised response [23] | normalised response [24] | normalised response [25] | normalised response [26] | normalised response [27] | normalised response [28] | normalised response [29] | normalised response [30] | normalised response [31] | normalised response [32] | normalised response [33] | normalised response [34] | normalised response [35] | normalised response [36] | normalised response [37] |
| --- | --- | --- | --- | --- | --- | --- | --- | --- | --- | --- | --- | --- | --- | --- | --- | --- | --- | --- | --- | --- | --- | --- | --- | --- | --- | --- | --- | --- | --- | --- | --- | --- | --- | --- | --- | --- | --- |
| Cc1ccc([N+](=O)[O-])cc1S(=O)(=O)N(C)/N=C/c1cnc2ccc(Br)cn12 [PIK-75] (1000 nM) | 6.93% | 35.8% | 86.8% | 86.7% | 70.6% | -12.6% | 79% | 56.9% | 62.1% | 99.3% | 38.4% | 42.7% | -12.4% | -17.8% | 102% | 61.6% | -15.6% | 44.6% | 9.85% | 2.37% | 28.5% | 48.8% | 11.5% | 1.64% | 4.76% | 13.3% | 6.38% | 21.6% | 16.7% | 3.83% | 1.81% | 1.8% | 15.9% | 4.17% | 2.19% | 7.31% | 0.25% |
| C[C@]1(O)C[C@@H](c2nc(-c3ccc4ccc(-c5ccccc5)nc4c3)c3c(N)nccn32)C1 [Linsitinib] (1000 nM) | 91% | 108% | 94.9% | 105% | 104% | 97.3% | 94.9% | 76.7% | 94.6% | 124% | 87.9% | 93.5% | 75% | 102% | 73.8% | 102% | 75.2% | 96.5% | 78% | 88.6% | 88% | 101% | 94% | 85.5% | 92.5% | 88.7% | 92% | 98.9% | 76.8% | 101% | 48.5% | 85.9% | 95.5% | 83.8% | 79.6% | 94.5% | 69.8% |
| CC(=O)N(O)CCCCCNC(=O)CCC(=O)N(O)CCCCCNC(=O)CCC(=O)N(O)CCCCCN [Deferoxamine] (1000 nM) | 96.8% | 102% | 96.8% | 2.01% | 91.1% | 110% | 97.5% | 82.2% | 96.7% | -39.7% | 106% | 97.3% | 79.7% | 96.7% | 73.7% | 100% | 143% | 70.8% | 90.9% | 72.7% | 96.1% | 59.6% | 88.7% | 102% | 85.8% | 79.5% | 98.2% | 76.8% | 93.6% | 96.8% | 97.7% | 86.8% | 87.4% | 84.2% | 63.3% | 89.5% | 84.2% |
